Test results: article PMC5347771 (Oncotarget, 2016)

What was measured:
[1] = molecular target: T1, AXL (Homo sapiens, UniProt P30530); experiment: KINOMEscan competition binding (DiscoveRx); enzyme IC50 […] also measured (Reaction Biology)
T1 sequence (P30530 26-894): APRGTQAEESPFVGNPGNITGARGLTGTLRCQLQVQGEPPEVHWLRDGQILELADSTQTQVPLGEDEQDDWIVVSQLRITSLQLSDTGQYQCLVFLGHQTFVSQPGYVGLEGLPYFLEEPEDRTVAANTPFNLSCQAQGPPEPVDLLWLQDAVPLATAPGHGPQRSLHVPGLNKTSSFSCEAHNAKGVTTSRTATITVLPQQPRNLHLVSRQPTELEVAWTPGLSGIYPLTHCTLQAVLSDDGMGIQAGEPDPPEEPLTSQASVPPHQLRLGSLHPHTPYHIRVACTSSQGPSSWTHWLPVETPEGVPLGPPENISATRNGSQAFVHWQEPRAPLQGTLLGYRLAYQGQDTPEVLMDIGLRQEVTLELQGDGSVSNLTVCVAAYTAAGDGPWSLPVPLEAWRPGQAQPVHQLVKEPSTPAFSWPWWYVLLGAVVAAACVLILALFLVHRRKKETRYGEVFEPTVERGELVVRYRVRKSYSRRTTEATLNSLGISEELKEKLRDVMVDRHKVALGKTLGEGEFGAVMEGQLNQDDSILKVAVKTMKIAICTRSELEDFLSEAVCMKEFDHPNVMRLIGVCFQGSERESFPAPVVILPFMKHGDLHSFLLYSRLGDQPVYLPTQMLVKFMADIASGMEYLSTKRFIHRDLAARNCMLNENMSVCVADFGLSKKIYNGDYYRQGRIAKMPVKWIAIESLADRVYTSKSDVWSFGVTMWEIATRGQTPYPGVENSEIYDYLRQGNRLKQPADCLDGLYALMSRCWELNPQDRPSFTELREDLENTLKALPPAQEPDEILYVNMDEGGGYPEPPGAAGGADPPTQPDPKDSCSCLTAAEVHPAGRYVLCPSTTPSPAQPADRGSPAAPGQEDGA

[2] = molecular target: T2, TYRO-3 (Homo sapiens, UniProt Q06418); experiment: as above
T2 construct: gene TYRO3
T2 sequence (Q06418 41-890): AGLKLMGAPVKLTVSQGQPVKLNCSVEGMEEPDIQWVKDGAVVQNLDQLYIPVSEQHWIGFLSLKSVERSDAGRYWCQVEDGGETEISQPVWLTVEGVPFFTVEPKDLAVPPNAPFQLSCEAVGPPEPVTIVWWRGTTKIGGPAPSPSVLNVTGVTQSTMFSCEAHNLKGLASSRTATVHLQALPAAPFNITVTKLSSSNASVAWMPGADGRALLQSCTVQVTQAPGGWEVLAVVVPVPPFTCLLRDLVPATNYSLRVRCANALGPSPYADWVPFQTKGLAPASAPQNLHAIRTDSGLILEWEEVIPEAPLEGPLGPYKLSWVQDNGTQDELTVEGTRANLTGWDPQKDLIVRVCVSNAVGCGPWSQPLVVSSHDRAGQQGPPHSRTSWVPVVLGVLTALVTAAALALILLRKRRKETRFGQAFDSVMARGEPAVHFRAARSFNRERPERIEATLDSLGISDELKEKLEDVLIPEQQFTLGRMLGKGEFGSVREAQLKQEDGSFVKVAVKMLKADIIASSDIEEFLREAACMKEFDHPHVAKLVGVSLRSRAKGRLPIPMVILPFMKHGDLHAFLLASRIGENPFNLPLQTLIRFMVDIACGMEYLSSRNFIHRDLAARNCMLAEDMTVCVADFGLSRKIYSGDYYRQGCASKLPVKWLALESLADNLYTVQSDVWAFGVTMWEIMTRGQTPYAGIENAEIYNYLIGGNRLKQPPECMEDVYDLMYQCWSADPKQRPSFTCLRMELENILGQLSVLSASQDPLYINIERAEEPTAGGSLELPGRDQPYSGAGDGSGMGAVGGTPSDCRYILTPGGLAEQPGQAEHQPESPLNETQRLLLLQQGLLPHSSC

With NC(=O)Nc1cc(-c2cccc(F)c2)sc1C(=O)N[C@H]1CCCNC1 [DN10764, (S)-5-(3-fluorophenyl)-N-(piperidin-3-yl)-3-ureidothiophene-2-carboxamide] the Kd [1] was 26 nM and the Kd [2] was 1050 nM.
